Patent US8802597B2, “Herbicidal pyrimidines” (E I du Pont de Nemours and Company, priority 2003, dated 2014)

Key:
Assay type in all cases: in vivo
[1] = system: Surinam grass (Brachiaria decumbens); experiment: Test B pre/postemergence
Source text: (§1) Seeds selected from barnyardgrass (Echinochloa crus-galli), Surinam grass (Brachiaria decumbens), cocklebur (Xanthium strumarium), corn (Zea mays), crabgrass (Digitaria sanguinalis), giant foxtail (Setaria faberii), lambsquarters (Chenopodium album), morningglory (Ipomoea coccinea), pigweed (Amaranthus retroflexus), velvetleaf (Abutilon theophrasti), and wheat (Triticum aestivum) were planted and treated preemergence with test chemicals formulated in a non-phytotoxic solvent mixture which included a surfactant.
(§2) At the same time, plants selected from these crop and weed species and also blackgrass (Alopecurus myosuroides) and wild oat (Avena fatua) were treated with postemergence applications of test chemicals formulated in the same manner. Plants ranged in height from 2 to 18 cm (1- to 4-leaf stage) for postemergence treatments. Plant species in the flooded paddy test consisted of rice (Oryza sativa), umbrella sedge (Cyperus difformis), duck salad (Heteranthera limosa) and barnyardgrass (Echinochloa crus-galli) grown to the 2-leaf stage for testing. Treated plants and controls were maintained in a greenhouse for 13 to 15 days, after which time all species were compared to controls and visually evaluated. Plant response ratings, summarized in Table B, are based on a scale of 0 to 100 where 0 is no effect and 100 is complete control. A dash (-) response means no test result.

[2] = system: barnyardgrass (Echinochloa crus-galli); experiment: Test B pre/postemergence
Source text: as §1, §2

[3] = system: cocklebur (Xanthium strumarium); experiment: Test B pre/postemergence
Source text: as §1, §2

[4] = system: corn (Zea mays); experiment: Test B pre/postemergence
Source text: as §1, §2

[5] = system: crabgrass (Digitaria sanguinalis); experiment: Test B pre/postemergence
Source text: as §1, §2

[6] = system: giant foxtail (Setaria faberii); experiment: Test B pre/postemergence
Source text: as §1, §2

[7] = system: lambsquarters (Chenopodium album); experiment: Test B pre/postemergence
Source text: as §1, §2

[8] = system: morningglory (Ipomoea coccinea); experiment: Test B pre/postemergence
Source text: as §1, §2

[9] = system: pigweed (Amaranthus retroflexus); experiment: Test B pre/postemergence
Source text: as §1, §2

[10] = system: velvetleaf (Abutilon theophrasti); experiment: Test B pre/postemergence
Source text: as §1, §2

[11] = system: wheat (Triticum aestivum); experiment: Test B pre/postemergence
Source text: as §1, §2

[12] = system: blackgrass (Alopecurus myosuroides); experiment: Test B postemergence; details: for Blackgrass plant response rating: 125 g ai/ha, scale 0 to 100 (0 no effect, 100 complete control); for Plant response rating, Blackgrass: 500 g ai/ha, scale 0 to 100
Summary of the method: (§3)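 Following sowing, compounds in a surfactant-bearing non-phytotoxic solvent were applied preemergence; emerged plants 2 to 18 cm high got postemergence treatment concurrently. Evaluation: 13 to 15 days later, greenhouse, 0–100 visual scale.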

[13] = system: wild oat (Avena fatua); experiment: Test B postemergence; details: for Oat, Wild plant response rating: 125 g ai/ha, scale 0 to 100 (0 no effect, 100 complete control); for Plant response rating, Oat, Wild: 500 g ai/ha, scale 0 to 100
Summary of the method: as §3

[14] = system: barnyardgrass (Echinochloa crus-galli); experiment: Test B flooded paddy test; details: Flood, 1000 g ai/ha; scale 0 (no effect) to 100 (complete control)
Description: as §2

[15] = system: duck salad (Heteranthera limosa); experiment: Test B flooded paddy test; details: Flood, 1000 g ai/ha; scale 0 to 100
Description: as §2

[16] = system: rice (Oryza sativa); experiment: Test B flooded paddy test; details: Flood, 1000 g ai/ha; scale 0 to 100
Description: as §2

[17] = system: umbrella sedge (Cyperus difformis); experiment: Test B flooded paddy test; details: Flood, 1000 g ai/ha; scale 0 to 100
Description: as §2

[18] = Postemergence, 125 g ai/ha, scale 0 to 100 (0 no effect, 100 complete control)
[19] = Postemergence, 500 g ai/ha, scale 0 to 100
[20] = Preemergence, 125 g ai/ha, scale 0 to 100 (0 no effect, 100 complete control)
[21] = Preemergence, 500 g ai/ha, scale 0 to 100 (0 no effect, 100 complete control)

## CCOC(=O)C(C)c1nc(C2CC2)nc(N)c1Br (stereo not drawn) [Compound 32]
[1]; [18]
  Surinam Grass plant response rating: 0
[1]; [19]
  Plant response rating, Surinam Grass: 10
[1]; [20]
  Plant response rating, Surinam Grass: 0
[1]; [21]
  Surinam Grass plant response rating: 0
[2]; [18]
  Barnyardgrass plant response rating: 20
[2]; [19]
  Plant response rating, Barnyardgrass: 70
[2]; [20]
  Plant response rating, Barnyardgrass: 0
[2]; [21]
  Barnyardgrass plant response rating: 10
[3]; [18]
  Cocklebur plant response rating: 40
[3]; [19]
  Plant response rating, Cocklebur: 90
[3]; [20]
  Plant response rating, Cocklebur: 80
[3]; [21]
  Cocklebur plant response rating: 90
[4]; [18]
  Corn plant response rating: 0
[4]; [19]
  Plant response rating, Corn: 10
[4]; [20]
  Plant response rating, Corn: 0
[4]; [21]
  Corn plant response rating: 0
[5]; [18]
  Crabgrass plant response rating: 10
[5]; [19]
  Plant response rating, Crabgrass: 20
[5]; [20]
  Plant response rating, Crabgrass: 0
[5]; [21]
  Crabgrass plant response rating: 40
[6]; [18]
  Foxtail, Giant plant response rating: 10
[6]; [19]
  Plant response rating, Foxtail, Giant: 20
[6]; [20]
  Plant response rating, Foxtail, Giant: 0
[6]; [21]
  Foxtail, Giant plant response rating: 0
[7]; [18]
  Lambsquarters plant response rating: 70
[7]; [19]
  Plant response rating, Lambsquarters: 80
[7]; [20]
  Plant response rating, Lambsquarters: 40
[7]; [21]
  Lambsquarters plant response rating: 90
[8]; [18]
  Morningglory plant response rating: 40
[8]; [19]
  Plant response rating, Morningglory: 90
[8]; [20]
  Plant response rating, Morningglory: 40
[8]; [21]
  Morningglory plant response rating: 80
[9]; [18]
  Pigweed plant response rating: 80
[9]; [19]
  Plant response rating, Pigweed: 80
[9]; [20]
  Plant response rating, Pigweed: 40
[9]; [21]
  Pigweed plant response rating: 90
[10]; [18]
  Velvetleaf plant response rating: 10
[10]; [19]
  Plant response rating, Velvetleaf: 50
[10]; [20]
  Plant response rating, Velvetleaf: 50
[10]; [21]
  Velvetleaf plant response rating: 80
[11]; [18]
  Wheat plant response rating: 20
[11]; [19]
  Plant response rating, Wheat: 30
[11]; [20]
  Plant response rating, Wheat: 0
[11]; [21]
  Wheat plant response rating: 10
[12]
  Blackgrass plant response rating: 30
  Plant response rating, Blackgrass: 40
[13]
  Oat, Wild plant response rating: 20
  Plant response rating, Oat, Wild: 30
[14]
  Plant response rating, Barnyardgrass: 0
[15]
  Plant response rating, Ducksalad: 0
[16]
  Plant response rating, Rice: 0
[17]
  Plant response rating, Sedge, Umbrella: 0

## CCOC(=O)c1nc(C2CC2)nc(NCCN(C)C)c1Br [Compound 38]
[1]; [18]
  Surinam Grass plant response rating: 0
[1]; [19]
  Plant response rating, Surinam Grass: 20
[1]; [20]
  Plant response rating, Surinam Grass: 0
[1]; [21]
  Surinam Grass plant response rating: 0
[2]; [18]
  Barnyardgrass plant response rating: 0
[2]; [19]
  Plant response rating, Barnyardgrass: 0
[2]; [20]
  Plant response rating, Barnyardgrass: 0
[2]; [21]
  Barnyardgrass plant response rating: 0
[3]; [18]
  Cocklebur plant response rating: 0
[3]; [19]
  Plant response rating, Cocklebur: 0
[3]; [20]
  Plant response rating, Cocklebur: 0
[3]; [21]
  Cocklebur plant response rating: 0
[4]; [18]
  Corn plant response rating: 0
[4]; [19]
  Plant response rating, Corn: 0
[4]; [20]
  Plant response rating, Corn: 0
[4]; [21]
  Corn plant response rating: 10
[5]; [18]
  Crabgrass plant response rating: 0
[5]; [19]
  Plant response rating, Crabgrass: 20
[5]; [20]
  Plant response rating, Crabgrass: 0
[5]; [21]
  Crabgrass plant response rating: 0
[6]; [18]
  Foxtail, Giant plant response rating: 0
[6]; [19]
  Plant response rating, Foxtail, Giant: 0
[6]; [20]
  Plant response rating, Foxtail, Giant: 0
[6]; [21]
  Foxtail, Giant plant response rating: 0
[7]; [18]
  Lambsquarters plant response rating: 20
[7]; [19]
  Plant response rating, Lambsquarters: 60
[7]; [20]
  Plant response rating, Lambsquarters: 20
[7]; [21]
  Lambsquarters plant response rating: 90
[8]; [18]
  Morningglory plant response rating: 10
[8]; [19]
  Plant response rating, Morningglory: 40
[8]; [20]
  Plant response rating, Morningglory: 0
[8]; [21]
  Morningglory plant response rating: 50
[9]; [18]
  Pigweed plant response rating: 30
[9]; [19]
  Plant response rating, Pigweed: 30
[9]; [20]
  Plant response rating, Pigweed: 10
[9]; [21]
  Pigweed plant response rating: 70
[10]; [18]
  Velvetleaf plant response rating: 0
[10]; [19]
  Plant response rating, Velvetleaf: 50
[10]; [20]
  Plant response rating, Velvetleaf: 0
[10]; [21]
  Velvetleaf plant response rating: 0
[11]; [18]
  Wheat plant response rating: 0
[11]; [19]
  Plant response rating, Wheat: 0
[11]; [20]
  Plant response rating, Wheat: 0
[11]; [21]
  Plant response rating, Wheat: 0
[12]
  Blackgrass plant response rating: 0
  Plant response rating, Blackgrass: 0
[13]
  Oat, Wild plant response rating: 0
  Plant response rating, Oat, Wild: 0
[14]
  Plant response rating, Barnyardgrass: 0
[15]
  Plant response rating, Ducksalad: 0
[16]
  Plant response rating, Rice: 0
[17]
  Plant response rating, Sedge, Umbrella: 0

## CCOC(=O)c1nc(C2CC2)nc(NCCOC)c1Br [Compound 39]
[1]; [18]
  Surinam Grass plant response rating: 0
[1]; [19]
  Plant response rating, Surinam Grass: 30
[1]; [20]
  Plant response rating, Surinam Grass: 0
[1]; [21]
  Surinam Grass plant response rating: 0
[2]; [18]
  Barnyardgrass plant response rating: 0
[2]; [19]
  Plant response rating, Barnyardgrass: 70
[2]; [20]
  Plant response rating, Barnyardgrass: 0
[2]; [21]
  Barnyardgrass plant response rating: 20
[3]; [18]
  Cocklebur plant response rating: 30
[3]; [19]
  Plant response rating, Cocklebur: 50
[3]; [20]
  Plant response rating, Cocklebur: 10
[3]; [21]
  Cocklebur plant response rating: 30
[4]; [18]
  Corn plant response rating: 0
[4]; [19]
  Plant response rating, Corn: 50
[4]; [20]
  Plant response rating, Corn: 30
[4]; [21]
  Corn plant response rating: 50
[5]; [18]
  Crabgrass plant response rating: 0
[5]; [19]
  Plant response rating, Crabgrass: 40
[5]; [20]
  Plant response rating, Crabgrass: 0
[5]; [21]
  Crabgrass plant response rating: 50
[6]; [18]
  Foxtail, Giant plant response rating: 0
[6]; [19]
  Plant response rating, Foxtail, Giant: 30
[6]; [20]
  Plant response rating, Foxtail, Giant: 0
[6]; [21]
  Foxtail, Giant plant response rating: 20
[7]; [18]
  Lambsquarters plant response rating: 70
[7]; [19]
  Plant response rating, Lambsquarters: 90
[7]; [20]
  Plant response rating, Lambsquarters: 50
[7]; [21]
  Lambsquarters plant response rating: 100
[8]; [18]
  Morningglory plant response rating: 80
[8]; [19]
  Plant response rating, Morningglory: 100
[8]; [20]
  Plant response rating, Morningglory: 30
[8]; [21]
  Morningglory plant response rating: 70
[9]; [18]
  Pigweed plant response rating: 50
[9]; [19]
  Plant response rating, Pigweed: 70
[9]; [20]
  Plant response rating, Pigweed: 70
[9]; [21]
  Pigweed plant response rating: 100
[10]; [18]
  Velvetleaf plant response rating: 40
[10]; [19]
  Plant response rating, Velvetleaf: 70
[10]; [20]
  Plant response rating, Velvetleaf: 0
[10]; [21]
  Velvetleaf plant response rating: 30
[11]; [18]
  Wheat plant response rating: 0
[11]; [19]
  Plant response rating, Wheat: 0
[11]; [20]
  Plant response rating, Wheat: 0
[11]; [21]
  Plant response rating, Wheat: 10
[12]
  Blackgrass plant response rating: 0
  Plant response rating, Blackgrass: 0
[13]
  Oat, Wild plant response rating: 0
  Plant response rating, Oat, Wild: 0
[14]
  Plant response rating, Barnyardgrass: 0
[15]
  Plant response rating, Ducksalad: 0
[16]
  Plant response rating, Rice: 0
[17]
  Plant response rating, Sedge, Umbrella: 0
